From patent US20230405151A1, “USE OF IRAK4 MODULATORS FOR GENE THERAPY” (Genzyme Corporation, priority 2022, published 2023)

Legend:
[1] = tested on: Human monocytic dendritic cells infected with AAV.SAN024; experiment: Cytokine release (Meso Scale Discovery) from dendritic cells treated with IRAK4 modulators and infected with AAV; assay type: cell-based; settings: for AAV-induced secretion of IL1b cytokine from dendritic cells: 80 nM, all doses
Description: Preparation of peripheral blood mononuclear cells. Blood from leukopaks (Stem cell technologies) from different donors was decanted into 50 mL tubes and Dulbecco's phosphate buffered saline (DPBS) was added at a 1:1 ratio. The blood plus DBPS mix was gently pipetted into a separate 50 mL tube containing 15 mL Ficoll (GE17-5442-02) to ensure no mixing of the blood and Ficoll phases. The mixture was centrifuged at 2000 RPM for 25 minutes at room temperature (9 acceleration and no braking). The buffy coat containing the peripheral blood mononuclear cells (PBMCs) was collected, transferred to a new tube, and centrifuged for five minutes at 400 RCF. PBMCs were washed three times with phosphate buffered saline (PBS) containing 1% fetal bovine serum (FBS) or fetal calf serum (FCS) and counted.
Isolation of monocytes. CD14+ monocytes were isolated from the PBMCs using CD14 MicroBeads following the manufacturer's protocol (Miltenyi Biotech, Germany, order no. 130-050-201, protocol available online world wide web miltenyibiotec.com/upload/assets/IM0001260.PDF). Briefly, PBMCs were incubated with 20 μL of CD14 MicroBeads per 10^7 total cells for 15 minutes at 2-8° C. PBMCs were applied onto a magnetic column (Miltenyi; world wide web miltenyibiotec.com/US-en/products/ls-columns.html#130-042-401) and unlabeled cells were allowed to pass through. After washing the column three times, the column was removed from the magnetic separator, (Miltneyi; world wide web miltenyibiotec.com/US-en/products/quadromacs-separator-and-starting-kits.html#130-091-051) placed on a collection tube, and magnetically labeled CD14+ monocytes were flushed out by pushing a plunger into the column.
Differentiation of monocytes. CD14+ monocytes were differentiated into dendritic cells using ImmunoCult-ACF Dendritic Cell Media, Differentiation Supplement, and Maturation Supplement (Stem Cell Technologies, catalog #10986, #10988, and #10989; world wide web cdn.stemcell.com/media/Files/pis/DX20521-PIS_1_2_0.pdf?_ga=2.81451927.1035383195.1642105700-1174975582.1603298321) following the manufacturer's protocol available online. Briefly, purified CD14+ monocytes were added to Dendritic Cell Media containing the Differentiation Supplement and incubated at 37° C. for three days. On day 3, media was replaced with fresh Dendritic Cell media containing Differentiation Supplement and cells were incubated for two additional days. On day 5, Maturation Supplement was added to the cells at a 1 to 100 dilution (e.g. 50 μL supplement per 5 mL culture). Differentiated dendritic cells were harvested on day 7.
rAAV production and titration. rAAV vectors (AAV.SAN024 and AAV.SAN029) were produced using a standard triple transfection method (Sena-Esteves and Gao, Cold Spring Harb Protoc; doi:10.1101/pdb.top095513, 2020). All serotypes tested encode the same GFP transgene. Viruses were purified by cesium chloride ultracentrifugation and titrated using both silver staining and quantitative polymerase chain reaction (qPCR).
IRAK4 targeting drugs and AAV Treatments. Dendritic cells were plated in 96 well plates with 200,000 cells per well. Each treatment was performed in triplicates. Cells were treated with zimlovisertib IRAK4 inhibitor (Synonyms: PF-06650833) Cat. No.: HY-19836 (MedChemExpress) and PROTAC IRAK4 degrader-1 Cat. No.: HY-129966 (MedChemExpress) at 16 nm, 80 nm, 400 nm and 2000 nm for 18 hrs at 37° C., 5% CO2 in an incubator. […] The cells were incubated at 37° C., 5% CO2 in an incubator for 24 hours. After 24 hours, plates were centrifuged and media supernatant was collected. The clarified media was analyzed by Meso Scale Discovery MSD (world wide web mesoscale.com/products/v-plex-proinflammatory-panel-1-human-kit-k15049d/) performed by DC3 therapeutics https://www.dc3therapeutics.com/services. The experiment outline of PBMC isolation, monocyte purification and dendritic cell differentiation is illustrated in FIG. 1. […]

[2] = tested on: Human monocytic dendritic cells; experiment: LDH release assay (cell cytotoxicity); assay type: cell-based; settings: 16 nM, 80 nM, 400 nM and 2000 nM with AAV.SAN024 MOI 1e5 24 hrs, versus untreated/uninfected cells
Description: IRAK4 targeting drugs and AAV Treatments. Dendritic cells were plated in 96 well plates with 200,000 cells per well. Each treatment was performed in triplicates. Cells were treated with zimlovisertib IRAK4 inhibitor (Synonyms: PF-06650833) Cat. No.: HY-19836 (MedChemExpress) and PROTAC IRAK4 degrader-1 Cat. No.: HY-129966 (MedChemExpress) at 16 nm, 80 nm, 400 nm and 2000 nm for 18 hrs at 37° C., 5% CO2 in an incubator. After pre-treatment of 18 hrs with the drugs, AAV vectors at 1e5 MOI were used. The cells were incubated at 37° C., 5% CO2 in an incubator for 24 hours. After 24 hours, plates were centrifuged and media supernatant was collected. The clarified media was analyzed by Meso Scale Discovery MSD (world wide web mesoscale.com/products/v-plex-proinflammatory-panel-1-human-kit-k15049d/) performed by DC3 therapeutics https://www.dc3therapeutics.com/services. […]
LDH Release Assay. Cell cytotoxicity was measured by release of lactate dehydrogenase (LDH) in media supernatants. LDH was quantified using Promega kit (Catalog #G1780) as per manufacturer's protocol. […] Stop Solution was added, and the absorbance signal is measured at 490 nm in a plate reader. https://www.promega.com/products/cell-health-assays/cell-viability-and-cytotoxicity-assays/cytotox-96-non_radioactive-cytotoxicity-assay/?catNum=G1780#protocols […]

[3] = co-treated with 16 nM, 400 nM and 2000 nM and AAV.SAN024 MOI 1e5 at the same time, 24 hrs
[4] = co-treated with 16-2000 nM and AAV.SAN024 MOI 1e5, 24 hrs
[5] = pre-treated 18 hrs with 16 nM, 400 nM and 2000 nM, then AAV.SAN024 MOI 1e5 24 hrs, three donors
[6] = pre-treated 18 hrs with 16-2000 nM, then AAV.SAN024 MOI 1e5 24 hrs

Structure (SMILES)	AAV-induced secretion of IL1b cytokine from dendritic cells [1, 3]	AAV-induced IL6 release from dendritic cells [1, 4]	AAV-induced TNFα release from dendritic cells [1, 4]	AAV-induced secretion of IL1b cytokine from dendritic cells [1, 5]	AAV-induced IL6 release from dendritic cells [1, 6]	AAV-induced TNFα release from dendritic cells [1, 6]	Cellular toxicity (LDH release in media supernatants) [2]
O=C1CCC(N2C(=O)c3cccc(NCc4cn(CCCNC(=O)c5ccc(-n6cc(NC(=O)c7coc(-c8ccnc(NCC9CC9)c8)n7)c(C(F)(F)F)n6)cc5)cn4)c3C2=O)C(=O)N1 (centres unmarked) [PROTAC IRAK4 degrader-1]	blocked	Cytokine block was also observed	Cytokine block was also observed	blocked	Cytokine block was also observed	Cytokine block was also observed	no cellular toxicity
CC[C@@H]1[C@H](F)C(=O)N[C@@H]1COc1nccc2cc(C(N)=O)c(OC)cc12 [zimlovisertib, 1-[[(2S,3S,4S)-3-Ethyl-4-fluoro-5-oxo-2-pyrrolidinyl]methoxy]-7-methoxy-6-isoquinolinecarboxamide]	blocked	Cytokine block was also observed	Cytokine block was also observed	blocked	Cytokine block was also observed	Cytokine block was also observed	no cellular toxicity
